From patent US9180135B2, “Miliacin and sphingolipids and/or phospholipids composition for hair and scalp care” (HITEX, priority 2013, dated 2015)

Test system: hair bulb root cells (keratinocytes)
Test: In vitro test: cellular proliferation of root cells (keratinocytes) in cultured human scalp fragments, anti-Ki67 immunohistochemistry
Format: cell-based
Settings: cultures stopped on D4, 1.7 μg/ml of miliacin, Ki67-positive cells
Protocol: This test consists of studying the cellular proliferation of root cells (keratinocytes). Indeed, as mentioned above, cellular proliferation at the hair bulb matrix promotes hair growth.
Composition A: 1.7 μg/ml of miliacin
Composition B: 150 μg/ml of the composition disclosed herein, Keranat, comprising: • 1.7 μg/ml of miliacin (1.1% of mixture) • 0.30 μg/ml of glycosylceramides and ceramides (0.21% of mixture) • 1.2 μg/ml of phospholipids (0.8% of mixture) Methodology
Human scalp fragments were obtained in plastic surgery from twelve different donors from the occipital area prior to hair implantation. They were deposited in inserts, in turn placed in culture wells. Culture medium specifically suitable for maintaining survival conditions (antibiotic, foetal calf serum (FCS)) was added to the bottom of the wells, running a passage by slow diffusion between the two compartments via a 3 μm thick porous membrane.
The composition is added in dilution at a predetermined dose, in the culture medium to promote contact with the hair bulbs. […]
The root proliferation was analysed by means of immunohistochemistry using an anti-Ki67 antibody marker of phase M, S, G1 and G2 cells in the cell cycle (mouse monoclonal antibody, MIB1 clone, diluted to 1:300, marketed by Dako). […]
On each bulb, the number of positive cells is counted with respect to a total of approximately 100 cells. […]

For miliacin [Composition A], the “Results (% of proliferating cells compared to control)” value was “+92%” and the “Results (% of proliferating cells compared to control)” value (listed as millet oil alone) was 92%.
